Read-outs that look alike come from different tables or passages of the source.
Key:
[1] = system: rats; assay: Rotarod test of the tetrad; format: in vivo, rat; conditions: 2-3 hr
Description: Rats were tested for motor function and the ataxic effects of novel drugs as described previously^151-153. To determine drug effects on motor coordination, rats are trained 72 h before the test (3 sessions 24 h apart) to remain for at least 180 s on a rotarod revolving at an acceleration of 4-40 revs over 5 min). Rats are tested immediately before vehicle or drug injections and tested again at 2, 6, 24 and 48 hrs after injection. The time for which the rats are able to remain on the rotarod is recorded up to a cut-off of 5 min.

[2] = target: human CB1R (hCB1R) (Homo sapiens, UniProt P21554); assay: human CB1R (hCB1R) calcium flux assay; format: cell-based; conditions: Table 1; read-out: Ca Flux % Emax
Source text: Compounds were first screened for: a) CB1R and CB2R binding, b) CB1R agonist activity using the human CB1R (hCB1R) calcium flux assay, and c) BBB permeability using the Madin-Darby canine kidney (MDCK-MDR1) cell line assay.
The calcium 3 dye assays were run according to manufacturer's specifications (http://www.moleculardevices.com/Products/Assay-Kits/GPCRs/FLIPR-Calcium.html) and as reported in our previous publications^112,113. Briefly, wells of black clear-bottom 96-well tissue culture-treated plates are seeded with 20,000 cells the afternoon before assay. The day of assay, the cells are incubated with the Ca^2+ indicator dye for 1 hr @ 37° C. For antagonist assays, the test compound is preincubated with the cells during the last 10 min of the dye incubation. Basal or unstimulated fluorescence intensity is recorded in the FlexStation @ 37° C. for 13 sec followed by the addition of test compound or CP 55,940 (depending on the assay endpoint). Fluorescence intensity is recorded for an additional 47 sec. The effect of test compound in each well is determined by subtracting the minimum from the maximum fluorescence during the 47-sec recording period.

[3] = system: rats; assay: Catalepsy (ring) test of the tetrad; format: in vivo, rat; conditions: 1-3 hrs
Description: Catalepsy (ring) test. Catalepsy was determined with a ring immobility test^154, modified for rats^139, 153. Rats are placed with their forepaws on a horizontal metal ring (12 cm diameter) at a height that allows their hindpaws to just touch the bench surface. Immobility is recorded as the time for the rat to move off the ring with a 100 s cutoff. Rats are tested before vehicle/drug injections and again at various times after injection.

[4] = system: rats; assay: Hypothermia test of the tetrad; format: in vivo, rat
Description: Rats are acclimated to a plastic restrainer apparatus (Model RTV-180 Braintree Scientific Inc.) on the day of testing by placing them in the restrainer twice for 5 min separated by 20 min. Baseline core temperature is taken before treatment, and the rectal temperature is measured again at various times after injection of the CB1R ligands.

[5] = system: sciatic nerve entrapment (SNE) neuropathy; assay: SNE neuropathy, mechanical allodynia (von Frey); format: in vivo, rat; conditions: 0.3 mg/kg
Description: The effectiveness of CBR agonists was tested for alleviating the painful symptoms of neuropathy induced by unilateral sciatic nerve entrapment (SNE)^131. The peripheral neuropathy induced by SNE is highly comparative to that of chronic constriction injury (CCI), which uses chromic gut suture materials instead of polyethylene cuffs^132. […] This increased excitability is at least in part attributable to injury-induced post-transcriptional transport of the voltage-gated sodium channel 1.8 (NaV1.8) mRNA, axonal accumulation of NaV1.8 mRNA, and its local protein translation leading to the increased NaV1.8 functional expression in injured nerve^136. The hyperexcitability and ectopic burst discharge of primary sensory neurons are widely considered to be the major contributors to pain symptomatology of peripheral neuropathy models. The SNE-induced mechanical allodynia effectively models the most common complaint of human neuropathy patients of dynamic mechanical allodynia. Behavioral measurements of mechanical sensitivity were conducted before and after induction of SNE as follows:
(§1) Rats are placed in a plastic-walled cage (10×20×13 cm) with a metal mesh floor (0.6×0.6 cm holes) and allowed to acclimate for 10 min. The amount of pressure (g) needed to evoke a hindpaw withdrawal response is measured 4 times on each paw separated by 30-s intervals using a von Frey-type digital meter (Model 1601C, IITC Instr.). Results of 4 tests/session are averaged for each paw.

[6] = target: CB2R (Homo sapiens, UniProt P34972); assay: CB2R radioligand displacement binding assay (CP55940 radioligand)
Description: Detailed radioligand displacement assays (using the well-characterized CBR agonist […] as the radioligand) were conducted to determine the affinity (Ki) of the test compounds for CB1R and CB2R as has been previously described by our group^112,113. Heterologous competition binding assays were performed to calculate receptor affinities. Unlabeled SR141716 or SR144528 were used as appropriate controls for non-specific binding (NSB) in the assay. Calculation of the equilibrium dissociation constant (Ki) was performed using the Cheng-Prusoff equation.

[7] = system: rats; assay: Tail-flick test of the tetrad; format: in vivo, rat; conditions: 0.3 mg/kg, intraperitoneal
Source text: A modified Hargreaves apparatus (Model 390, IITC Instr.) is used to measure tail-flick latency (TFL). Radiant heat is directed to a point 3 cm from the tail tip and the TFL observed and timed with a photo cell counter. The intensity of the radiant heat is adjusted for a baseline TFL of approximately 5-7 seconds for naïve rats, with a 25 s cutoff set to avoid tissue damage (see FIG. 3).

[8] = system: CFA-induced heat hyperalgesia; assay: CFA chronic inflammation, heat hyperalgesia (Hargreaves); format: in vivo, rat; conditions: systemic injection
Description: The Hargreaves method was used to assess paw-withdrawal latency to a thermal nociceptive stimulus^175. Rats were acclimated (10 min) within Plexiglas enclosures (10×20×20 cm) on a clear glass plate preheated to 30° C. A radiant heat source (adjustable infrared lamp) and a timer were used to measure paw withdrawal latency (Model 390, IITC Instruments). Each paw was tested 4 times at 30% maximal intensity allowing 5 min between each test. […] Results of 4 tests were averaged for each paw for that session.

[9] = system: CFA-induced mechanical allodynia; assay: CFA chronic inflammation, mechanical allodynia; format: in vivo, rat; conditions: systemic injection
Description: as §1
Compounds were tested in a well-established model of chronic inflammation. In this model, unilateral intraplantar injection of complete Freund's adjuvant (CFA) leads to long-lasting symptoms of mechanical allodynia and thermal hyperalgesia of the affected hindpaw, which is alleviated by local, […] administration of CB1R ligands^125, 155. […] This is consistent with the higher CB1R affinity of our novel compound 13339-145-35 (Compound 9, see Table 1) compared with the AstraZeneca AZ11713908 compound^125.

[10] = target: CB1R (Homo sapiens, UniProt P21554); assay: CB1R radioligand displacement binding assay (CP55940 radioligand)
Description: Heterologous competition binding assays were performed to calculate receptor affinities. Unlabeled SR141716 or SR144528 were used as appropriate controls for non-specific binding (NSB) in the assay. Calculation of the equilibrium dissociation constant (Ki) was performed using the Cheng-Prusoff equation.

[11] = system: rats; assay: Tetrad assays overall (CNS-mediated side effects); format: in vivo, rat; conditions: doses effective against neuropathy symptoms, i.p.
Source text: The CNS-mediated psychotropic actions of CB1R ligands represent their most troubling side effects. The cannabinoid agonists such as Δ9-THC or anandamide produce a complex pattern of behavioral effects which are unique to this class of compounds: at low doses a mixture of stimulatory and depressant effects is observed, while at higher doses central depression predominates^137,138. The tetrad of tests which is classically predictive of cannabinoid receptor activation includes: catalepsy, motor performance, hypothermia, and analgesia tests^139-141. Effects observed in all four tests have been thought to be mediated by the activation of central CBRs, but it is now well established that peripheral CBRs make a major contribution to the analgesic effects of cannabinoids^142-144. The catalepsy and motor deficits induced by CB1R ligands are likely produced by their action on CB1Rs within the basal ganglia and cerebellum, while hypothermia is thought to be mediated mainly through hypothalamic and brainstem CB1Rs^137, 145-150. […] Therefore, “tetrad” tests were used to determine whether the novel CB1R ligands have antinociceptive effects and side-effect profile consistent with the activation of central CB1Rs. […]

CB1R, sequence (P21554 whole entry): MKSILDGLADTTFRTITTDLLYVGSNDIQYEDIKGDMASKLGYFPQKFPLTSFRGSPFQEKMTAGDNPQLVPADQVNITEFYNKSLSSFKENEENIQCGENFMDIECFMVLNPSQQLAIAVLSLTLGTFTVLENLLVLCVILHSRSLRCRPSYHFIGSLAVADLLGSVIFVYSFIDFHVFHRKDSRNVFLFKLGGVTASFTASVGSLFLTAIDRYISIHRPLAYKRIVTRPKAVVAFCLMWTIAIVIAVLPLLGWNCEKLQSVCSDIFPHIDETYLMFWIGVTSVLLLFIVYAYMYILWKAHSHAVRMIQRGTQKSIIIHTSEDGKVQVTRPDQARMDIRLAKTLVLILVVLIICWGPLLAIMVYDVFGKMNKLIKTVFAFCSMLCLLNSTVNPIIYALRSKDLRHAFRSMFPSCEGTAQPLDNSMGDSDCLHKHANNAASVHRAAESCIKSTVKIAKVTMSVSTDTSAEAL
CB2R, sequence (P34972 whole entry): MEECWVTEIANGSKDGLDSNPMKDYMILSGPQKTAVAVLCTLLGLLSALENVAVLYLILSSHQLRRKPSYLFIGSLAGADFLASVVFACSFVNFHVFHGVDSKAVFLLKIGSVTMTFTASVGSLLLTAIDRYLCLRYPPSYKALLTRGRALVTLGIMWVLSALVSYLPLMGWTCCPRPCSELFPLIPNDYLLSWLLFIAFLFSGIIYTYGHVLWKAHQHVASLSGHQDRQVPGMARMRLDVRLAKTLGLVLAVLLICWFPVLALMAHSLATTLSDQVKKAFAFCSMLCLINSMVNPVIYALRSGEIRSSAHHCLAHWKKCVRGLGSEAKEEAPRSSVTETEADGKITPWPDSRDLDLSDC
human CB1R (hCB1R), sequence (P21554 whole entry): as the sequence (P21554 whole entry) above

Compound	Rotarod % change from pre-drug (0.3 mg/kg) at 2-3 hr [1]	Emax [2]	Catalepsy % change from pre-drug (0.3 mg/kg) at 1-3 hrs [3]	effect in the hypothermia assay ([4]; 0.3 mg/kg, intraperitoneal)	Hypothermia % change from predrug (0.3 mg/kg) at 2-3 hr ([4]; 2-3 hr)	effect on SNE-induced mechanical allodynia (ipsilateral hindpaw withdrawal thresholds) ([5]; systemic injection)	SNE Neuropath Assay-% return to pre-drug (0.3 mg/kg) contralateal threshold at 2-3 h ([5]; 2-3 h)	Ki [6]	effect in the tail-flick assay [7]	effect on CFA-induced heat hyperalgesia [8]	effect on CFA-induced mechanical allodynia [9]	Ki [10]	Ki ([10]; Table 1, CP55940 radioligand, read-out: CB1_KI_CP)	CNS side effects in the tetrad assays [11]
COc1ccc(/C=C2\C=C(CCN3CCOCC3)c3ccccc32)c2ccccc12 [Compound 10, 4-{2-[(1E)-2-[(4-methoxy-naphthalen-1-yl)methylidene]-1H-inden-3-yl]ethyl} morpholine]	0%	114%	0%	small difference	0%	anti-allodynic effects	103.2%	4.17 nM	small, but significant effects	robust relief	relatively small effect	2.4 nM	2.43 nM	
CCCCCCC(C)(C)c1cc(O)c2c(c1)OC(C)(C)[C@@H]1CC=C(CO)C[C@@H]21 [HU-210]														potent CNS side effects
